30 compounds from patent US9434711B2 (Janssen Pharmaceutica, NV, priority 2007, dated 2016) can be followed below.

In this assay the target is canine TRPM8 (Canis lupus familiaris, UniProt Q1A7N1). In words: In Vitro Canine TRPM8 Functional Assay (Ca2+ fluorescence, icilin activation). The settings on record: for IC50: read-out: IC50; for inhibition at 0.2 µM: read-out: % Inh @ 0.2; for inhibition at 0.5 µM: compound at 0.5 μM, read-out: % Inh @ 0.5. The format is cell-based. Put shortly:
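Cells (HEK293, stable canine TRPM8) are seeded 24 h before assay. They are then dye-loaded with Calcium 3 at 37 °C followed by room temperature. Compound is added and monitored for 5 min, after which icilin (~80% maximal response) is added.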

Where [1] appears, read: HEK293 cells stably expressing canine TRPM8, icilin activation, eight-point dose-response.
[2] abbreviates: compound at 0.2 μM, canine TRPM8, icilin activation.
[3] abbreviates: 0.2 μM compound, HEK293 cells stably expressing canine TRPM8, icilin activation.
Setting [4] is: HEK293 cells stably expressing canine TRPM8, icilin activation, average of two or more determinations.
Setting [5] is: canine TRPM8, icilin activation.

Where two headings read alike, the source gives them in different places.

canine TRPM8, sequence (Q1A7N1 1-1104): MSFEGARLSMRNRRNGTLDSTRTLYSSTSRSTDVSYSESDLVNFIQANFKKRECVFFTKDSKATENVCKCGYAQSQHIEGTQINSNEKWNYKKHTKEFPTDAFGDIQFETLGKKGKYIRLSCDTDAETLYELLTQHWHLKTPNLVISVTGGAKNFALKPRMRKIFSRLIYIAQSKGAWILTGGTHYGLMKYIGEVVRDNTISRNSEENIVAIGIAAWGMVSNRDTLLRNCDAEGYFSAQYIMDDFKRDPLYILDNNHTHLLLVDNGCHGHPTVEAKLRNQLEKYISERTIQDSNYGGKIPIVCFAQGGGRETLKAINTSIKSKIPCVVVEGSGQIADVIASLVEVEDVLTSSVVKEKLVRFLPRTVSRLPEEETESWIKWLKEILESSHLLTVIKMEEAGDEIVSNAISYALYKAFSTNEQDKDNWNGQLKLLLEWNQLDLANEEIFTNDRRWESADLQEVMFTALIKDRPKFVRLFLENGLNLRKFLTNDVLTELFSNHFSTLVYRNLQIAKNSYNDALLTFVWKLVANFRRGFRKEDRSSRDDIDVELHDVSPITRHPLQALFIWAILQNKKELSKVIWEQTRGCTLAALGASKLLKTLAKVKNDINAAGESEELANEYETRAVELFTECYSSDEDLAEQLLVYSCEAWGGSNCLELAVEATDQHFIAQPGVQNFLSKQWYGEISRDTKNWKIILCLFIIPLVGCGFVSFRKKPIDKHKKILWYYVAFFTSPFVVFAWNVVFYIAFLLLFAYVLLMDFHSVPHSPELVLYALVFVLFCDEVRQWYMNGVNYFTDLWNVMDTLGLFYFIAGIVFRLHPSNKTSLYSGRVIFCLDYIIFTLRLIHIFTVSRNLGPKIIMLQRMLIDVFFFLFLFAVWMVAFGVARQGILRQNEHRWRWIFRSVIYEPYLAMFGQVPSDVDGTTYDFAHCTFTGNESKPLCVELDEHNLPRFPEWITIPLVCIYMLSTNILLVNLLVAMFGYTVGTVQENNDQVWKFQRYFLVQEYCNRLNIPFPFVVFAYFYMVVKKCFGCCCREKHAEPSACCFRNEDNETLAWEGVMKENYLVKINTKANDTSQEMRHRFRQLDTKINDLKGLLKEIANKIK

A word on the IC50: it is the concentration that inhibits the measured activity by half. Regarding `Cc1c(N(CCCCC(F)(F)F)S(=O)(=O)c2ccc(-c3nsc(=O)[nH]3)cc2)sc2ccccc12` [Compound 640, N-(3-Methyl-benzo[b]thiophen-2-yl)-N-(5,5,5-trifluoro-pentyl)-4-(5-oxo-4,5-dihydro-[1,2,4]thiadiazol-3-yl)-benzenesulfonamide], the concentration for half-maximal inhibition (IC50) under setting [1] worked out at 0.011 µM. For the same compound, the inhibition at 0.2 µM under setting [2] was determined as 103%.
Regarding `Cc1c(N(Cc2ccc(OC(F)(F)F)cc2)S(=O)(=O)CCC(C)(C)O)sc2ccccc12` [Compound 796, N-(3-Methyl-benzo[b]thiophen-2-yl)-N-(4-trifluoromethoxy-benzyl)-3-hydroxy-3-methyl-butane-1-sulfonamide], the inhibition at 0.2 µM under setting [3] stood at 101%. Also, the half-maximal inhibitory concentration (IC50) under setting [4] turned out to be 0.0242 µM.
On to `CCCCN(c1cc2ccccc2s1)S(C)(=O)=O` [Compound 382, N-(Benzo[b]thiophen-2-yl)-N-(butyl)-methanesulfonamide], for which the inhibition at 0.2 µM under setting [2] came out at 17%.
For the compound `Cc1nc(C)c(S(=O)(=O)N(Cc2ccc(F)c(C(F)(F)F)c2)c2sc3ccccc3c2C)s1` [Compound 75, N-(4-Fluoro-3-trifluoromethyl-benzyl)-N-(3-methyl-benzo[b]thiophen-2-yl)-2,4-dimethyl-thiazole-5-sulfonamide], the IC50 under setting [1] stood at 0.018 µM. Further, the inhibition at 0.2 µM under setting [2] was 98%.
As to `CCCCN(c1sc2ccccc2c1C(=O)N(C)C)S(=O)(=O)c1ccc(C(=O)O)cc1` [Compound 469, N-(Butyl)-N-(3-dimethylcarbamoyl-benzo[b]thiophen-2-yl)-4-carboxy-benzenesulfonamide], the inhibition at 0.2 µM under setting [2] was 13%.
For `O=S1NC(c2ccc(S(=O)(=O)N(CCC(F)(F)F)c3cc4ccccc4s3)cc2)=NO1` (centres unmarked) [Compound 596, N-(Benzo[b]thiophen-2-yl)-N-(3,3,3-trifluoro-propyl)-4-(3H-[1,2,3,5]oxathiadiazole-2-oxide)-benzenesulfonamide], the “% Inh @ 0.2 (μM)” value under setting [2] was found to be 17%.
On to `O=c1[nH]c(-c2ccc(S(=O)(=O)N(CCC3CC3)c3cc4ccccc4s3)cc2)no1` [Compound 612, N-(Benzo[b]thiophen-2-yl)-N-(cyclopropyl-ethyl)-4-(5-oxo-4,5-dihydro-[1,2,4]oxadiazol-3-yl)-benzenesulfonamide], for which the 50% inhibitory concentration (IC50) under setting [1] is 0.0537 µM. Moreover, under setting [2], the inhibition at 0.2 µM came out at 97%.
As for `COC(=O)c1cccc(S(=O)(=O)N(Cc2ccc(F)c(C(F)(F)F)c2)c2sc3cc(F)ccc3c2C)c1` [Compound 375, N-(6-Fluoro-3-methyl-benzo[b]thiophen-2-yl)-N-(4-fluoro-3-trifluoromethyl-benzyl)-3-carbomethoxy-benzenesulfonamide], the half-maximal inhibitory concentration (IC50) under setting [1] was 0.037 µM. Further, the inhibition at 0.2 µM under setting [2] is 79%.
On to `N/C(=N\O)c1ccc(S(=O)(=O)N(Cc2ccc(F)c(C(F)(F)F)c2)c2cc3ccccc3s2)cc1` [Compound 482, N-(Benzo[b]thiophen-2-yl)-N-(4-fluoro-3-trifluoromethyl-benzyl)-4-N-hydroxy-benzamidinesulfonamide], for which the IC50 under setting [1] came out at 0.024 µM. For the same compound, the “% Inh @ 0.2 (μM)” value under setting [2] was 100%.
Regarding `O=S(=O)(c1ccc(C(F)(F)F)cc1)N(Cc1ccc(F)c(F)c1)c1cc2ccccc2s1` [Compound 132, N-(Benzo[b]thiophen-2-yl)-N-(3,4-difluoro-benzyl)-4-trifluoromethyl-benzenesulfonamide], the inhibition at 0.5 µM under setting [5] amounted to 56%.
Regarding `O=S(=O)(c1ccsc1)N(Cc1ccc(F)c(C(F)(F)F)c1)c1sc2ccccc2c1Cl` [Compound 187, N-(3-Chloro-benzo[b]thiophen-2-yl)-N-(4-fluoro-3-trifluoromethyl-benzyl)-thien-3-yl-sulfonamide], under setting [1], the IC50 worked out at 0.006 µM. In addition, the inhibition at 0.2 µM under setting [2] was determined as 100%.
For the compound `COC(=O)c1ccc(S(=O)(=O)N(CCCOC(C)(C)C)c2sc3ccccc3c2C)cc1` [Compound 416, N-(3-Methyl-benzo[b]thiophen-2-yl)-N-(3-tert-butoxy-propyl)-4-carbomethoxy-benzenesulfonamide], under setting [1], the half-maximal inhibitory concentration (IC50) was 0.012 µM. In addition, the inhibition at 0.2 µM under setting [2] came to 95%.
`Nc1ccc(S(=O)(=O)N(CCC(F)(F)F)c2cc3ccccc3s2)cc1Cl` [Compound 586, 4-Amino-N-(benzo[b]thiophen-2-yl)-3-chloro-N-(3,3,3-trifluoro-propyl)-benzenesulfonamide]: the 50% inhibitory concentration (IC50) under setting [1] turned out to be 0.0346 µM. Further, the inhibition at 0.2 µM under setting [2] was 100%.
As to `CCCCN(c1sc2ccccc2c1Br)S(=O)(=O)c1ccc(N2CCOCC2)cc1` [Compound 559, N-(3-Bromo-benzo[b]thiophen-2-yl)-N-(butyl)-4-morpholine-benzenesulfonamide], under setting [1], the IC50 is 0.0032 µM. The “% Inh @ 0.2 (μM)” value under setting [2] is 104.59%.
With `CS(=O)(=O)Nc1ccc(S(=O)(=O)N(CCC(F)(F)F)c2sc3ccccc3c2Cl)cc1` [Compound 676, N-(3-Chloro-benzo[b]thiophen-2-yl)-4-methanesulfonylamino-N-(3,3,3-trifluoro-propyl)-benzenesulfonamide], the concentration for half-maximal inhibition (IC50) under setting [1] stood at 0.0259 µM. For the same compound, the inhibition at 0.2 µM under setting [2] came out at 102%.
The corresponding values for `O=c1[nH]c(-c2ccc(S(=O)(=O)N(CCC3CC3)c3sc4ccccc4c3Cl)cc2)no1` [Compound 627, N-(3-Chloro-benzo[b]thiophen-2-yl)-N-(cyclopropyl-ethyl)-4-(5-oxo-4,5-dihydro-[1,2,4]oxadiazol-3-yl)-benzenesulfonamide] are 0.0086 µM and 103%.
The corresponding values for `CCCCN(c1sc2ccccc2c1C)S(C)(=O)=O` [Compound 363, N-(Butyl)-N-(3-methyl-benzo[b]thiophen-2-yl)-methanesulfonamide] are 0.051 µM and 84%.
Take `COC(=O)CS(=O)(=O)N(Cc1ccc(F)c(C(F)(F)F)c1)c1sc2ccccc2c1C` [Compound 791, N-(4-Fluoro-3-trifluoromethyl-benzyl)-N-(3-methyl-benzo[b]thiophen-2-yl)-carbomethoxy-methanesulfonamide]: the IC50 under setting [1] was determined as 0.0231 µM. Also, the inhibition at 0.2 µM under setting [2] turned out to be 95%.
Turning to `Cc1c(N(CCCCC(F)(F)F)S(=O)(=O)c2ccc(N3CCCCC3)cc2)sc2ccccc12` [Compound 752, N-(3-Methyl-benzo[b]thiophen-2-yl)-N-(5,5,5-trifluoro-pentyl)-4-piperidine-benzenesulfonamide], the “% Inh @ 0.2 (μM)” value under setting [2] was 65%.
In the case of `Nc1ccc(S(=O)(=O)N(CCC(F)(F)F)c2cc3ccccc3s2)cc1` [Compound 499, 4-Amino-N-(benzo[b]thiophen-2-yl)-N-(3,3,3-trifluoro-propyl)-benzenesulfonamide], the 50% inhibitory concentration (IC50) under setting [1] came out at 0.015 µM. The inhibition at 0.2 µM under setting [2] worked out at 101%.
On to `CCS(=O)(=O)N(Cc1ccc(F)c(C(F)(F)F)c1)c1sc2ccccc2c1-c1ccsc1` [Compound 202, N-(4-Fluoro-3-trifluoromethyl-benzyl)-N-(3-thiophen-3-yl-benzo[b]thiophen-2-yl)-ethanesulfonamide], for which the inhibition at 0.2 µM under setting [2] stood at 32%.
As for `CS(=O)(=O)N(Cc1ccc(F)c(F)c1)c1cc2ccccc2s1` [Compound 34, N-Benzo[b]thiophen-2-yl-N-(3,4-difluoro-benzyl)-methanesulfonamide], the half-inhibitory concentration (IC50) under setting [1] was 0.184 µM. The inhibition at 0.5 µM under setting [5] was determined as 98%.
The matching figures for `CCS(=O)(=O)N(Cc1ccc(F)c(C(F)(F)F)c1)c1sc2ccccc2c1C` [Compound 40, N-(4-Fluoro-3-trifluoromethyl-benzyl)-N-(3-methyl-benzo[b]thiophen-2-yl)-ethanesulfonamide]: 0.0137 µM and 97%.
On to `COC(=O)[C@@H](C)CN(c1sc2ccccc2c1C)S(=O)(=O)c1ccccc1` [Compound 94, N-(3-Methyl-benzo[b]thiophen-2-yl)-N-[2(S)-methyl-2-carbomethoxy-ethyl]-benzenesulfonamide], for which the IC50 under setting [1] came to 0.018 µM. For the same compound, under setting [2], the inhibition at 0.2 µM stood at 98%.
The corresponding values for `Cc1c(N(Cc2ccc(F)c(C(F)(F)F)c2)S(=O)(=O)c2ccc3c(c2)CN(C)CC3)sc2ccccc12` [Compound 767, 2-Methyl-N-(4-fluoro-3-trifluoromethyl-benzyl)-N-(3-methyl-benzo[b]thiophen-2-yl)-1,2,3,4-tetrahydroisoquinolin-7-yl-sulfonamide] are 0.0892 µM and 77%.
The corresponding values for `O=c1[nH]c(-c2ccc(S(=O)(=O)N(CCC(F)(F)F)c3sc4ccccc4c3Cl)cc2)no1` [Compound 609, N-(3-Chloro-benzo[b]thiophen-2-yl)-N-(3,3,3-trifluoro-propyl)-4-(5-oxo-4,5-dihydro-[1,2,4]oxadiazol-3-yl)-benzenesulfonamide] are 0.0537 µM and 99%.
On to `CCS(=O)(=O)N(Cc1ccc(F)c(C(F)(F)F)c1)c1sc2ccccc2c1[C@@H](C)O` [Compound 535], for which the IC50 under setting [1] came out at 0.001 µM. Moreover, under setting [2], the “% Inh @ 0.2 (μM)” value is 102%.
In the case of `O=S(=O)(c1ccccc1)N(Cc1cccc(F)c1)c1cc2ccccc2s1` [Compound 3, N-Benzo[b]thiophen-2-yl-N-(3-fluoro-benzyl)-benzenesulfonamide], under setting [1], the half-inhibitory concentration (IC50) stood at 0.035 µM. The inhibition at 0.5 µM under setting [5] was 98%.
For the compound `Cc1c(N(Cc2ccc(OC(F)(F)F)cc2)S(=O)(=O)c2ccc(N3CCOCC3)cc2)sc2ccccc12` [Compound 800, N-(3-Methyl-benzo[b]thiophen-2-yl)-N-(4-trifluoromethoxy-benzyl)-4-morpholino-benzenesulfonamide], the inhibition at 0.2 µM under setting [3] was 102%. Besides, the concentration for half-maximal inhibition (IC50) under setting [4] stood at 0.0068 µM.
As for `CCCCN(c1cc2ccccc2s1)S(=O)(=O)c1ccc(C2=NOS(=O)N2)cc1` (centres unmarked) [Compound 470, N-(Benzo[b]thiophen-2-yl)-N-(butyl)-4-(3H-[1,2,3,5]oxathiadiazole-2-oxide)-benzenesulfonamide], the “% Inh @ 0.2 (μM)” value under setting [2] was 15%.
